Results reported in EP0354453A2, “Antimicrobial agent for animals” (priority 1988, dated 1990).
In brackets after ≈: the same amount, converted by molar mass. Where a name gives a salt, the structure may show the parent alone. Read-outs that look alike come from different tables or passages of the source.

What was measured:
Escherichia coli 881 = assay: in vitro antimicrobial activity (MIC), agar dilution, Part 2; assay type: cell-based
Experimental: (§1) Test microorganisms listed in Table 2 were cultured overnight in heart infusion nutrient broth (produced by Eiken Chemical Co., Ltd.). Culture broth containing about 10⁸/ml cells was diluted to a volume of 100 times. An aliquot (about 0.05 ml) of the diluted broth was inoculated onto a Mueller Hinton agar plate (produced by Eiken Chemical Co., Ltd.) to which Compound No. 1 was added in a prescribed concentration. […]
(§2) MIC of Compounds (1)-(8) against various pathogenic bacteria derived from animals was determined in the same manner as in Example 1.

Escherichia coli 139 = assay: as above; assay type: cell-based
Experimental: as §1, §2

Escherichia coli S6W = assay: as above; assay type: cell-based
Experimental: as §1, §2

[1] = system: Pasteurella multocida DB-12-1; assay: as above; assay type: cell-based; conditions: DB121
Experimental: as §1, §2

[2] = system: Staphylococcus aureus Yamaguchi 6; assay: as above; assay type: cell-based
Experimental: as §1, §2

[3] = system: Salmonella typhimurium 103; assay: as above; assay type: cell-based; conditions: Salmonella enterica
Experimental: as §1, §2

[4] = system: Salmonella typhimurium 569; assay: as above; assay type: cell-based
Experimental: as §1, §2

[5] = system: Bordetella bronchiaseptica OKM-1; assay: as above; assay type: cell-based
Experimental: as §1, §2

[6] = system: Mycoplasma gallisepticum Strain 2012; assay: in vitro antimicrobial activity (MIC) in Frey liquid medium; assay type: cell-based; conditions: Mycoplasmoides gallisepticum, STRAIN2012
Experimental: (§3) Various test strains of Mycoplasma gallisepticum derived from chicken were cultured in a Frey liquid medium for Mycoplasma for 3 days. The culture broth containing about 10⁸/ml cells was diluted to a volume of 100 times. The diluted broth was inoculated into Frey liquid media for Mycoplasma to which the compounds of this invention were added at prescribed concentrations. The cells were incubated at 37°C for 3-5 days while daily observing the color of the media. Among the culture broths maintaining yellow color at the time when the control to which no test compound was added turned red, the concentration of the broth having the minimum concentration was taken as the MIC of the compound.

[7] = system: Mycoplasma gallisepticum Strain DP-1047; assay: as above; assay type: cell-based; conditions: Mycoplasmoides gallisepticum
Experimental: as §3

[8] = system: Mycoplasma gallisepticum Strain T-2; assay: as above; assay type: cell-based; conditions: Mycoplasmoides gallisepticum
Experimental: as §3

[9] = system: Mycoplasma gallisepticum Strain 2004; assay: as above; assay type: cell-based; conditions: Mycoplasmoides gallisepticum, STRAIN2004
Experimental: as §3

[10] = system: Mycoplasma gallisepticum Strain T-7; assay: as above; assay type: cell-based; conditions: Mycoplasmoides gallisepticum, Mycoplasma gallisepticum Strain T-7, from chicken, 37°C, 3-5 days
Experimental: as §3

Mycoplasma gallisepticum = assay: Effect of oral administration on chicken inoculated with Mycoplasma gallisepticum; assay type: in vivo; conditions: for Chickens developing disease in air sac (naked eye observation) / No. of dead chickens: 5 tested chickens
Experimental: Mycoplasma gallisepticum cells collected from chickens having respiratory Mycoplasma infection were cultured for 3 days in a Frey liquid media for Mycoplasma. 0.2 ml of this culture broth was injected into the trachea of chickens of an average body weight of 80 g using a 1 ml disposable injection needle. Beginning from the next day following the inoculation, feeds to which Compound (1) had been added in the amount of 100 ppm, 75 ppm, or 50 ppm were freely given to the chickens for 5 days. Following the administration of Compound (1) the chickens were given feed containing no drug for a further 5 days. The surviving chickens were sacrificed and dissected. After examination of the degree of disease in the air sac, Mycoplasma gallisepticum in the infraorbital sinus, trachea, lung, and air sac were determined. […] TABLE 6 […]

[11] = Acute toxicity test, intravenous injection; assay type: in vivo
Experimental: Representative test compounds, Compounds (2) and (3), were intravenously injected to mice. No fatality occurred at a dose of 200 mg/kg (10 mice/group), for Compound (2), and a dose of 200 mg/kg (6 mice/group), for Compound (3). From the results, the LD₅₀ values of the compounds are considered to be greater than 200 mg/kg.

[12] = Escherichia coli, 881, Escherichia coli 881, Pig, read-out: MIC
[13] = Escherichia coli 139, Cow, read-out: MIC
[14] = Escherichia coli, S6W, Escherichia coli S6W, Chicken, read-out: MIC
[15] = Staphylococcus aureus Yamaguchi 6, Chicken, read-out: MIC
[16] = Salmonella typhimurium 103, Chicken, read-out: MIC
[17] = Salmonella enterica, TYPHIMURIUM, Salmonella typhimurium 569, Pig, read-out: MIC
[18] = Bordetella, OKM1, Bordetella bronchiaseptica OKM-1, Pig, read-out: MIC
[19] = Pasteurella multocida DB-12-1, Pig, read-out: MIC
[20] = Mycoplasma gallisepticum Strain 2012, from chicken, Frey liquid medium, 37°C, 3-5 days, read-out: MIC
[21] = Mycoplasma gallisepticum Strain DP-1047, from chicken, Frey liquid medium, 37°C, 3-5 days, read-out: MIC
[22] = Mycoplasma gallisepticum Strain T-2, from chicken, Frey liquid medium, 37°C, 3-5 days, read-out: MIC
[23] = Mycoplasma gallisepticum Strain 2004, from chicken, Frey liquid medium, 37°C, 3-5 days, read-out: MIC

Structure (SMILES)	MIC (Escherichia coli 881; [12]) [µg/mL]	MIC (Escherichia coli 139; [13]) [µg/mL]	MIC (Escherichia coli S6W; [14]) [µg/mL]	MIC [2, 15] [µg/mL]	MIC [3, 16] [µg/mL]	MIC [4, 17] [µg/mL]	MIC [5, 18] [µg/mL]	MIC [1, 19] [µg/mL]	MIC [6, 20] [µg/mL]	MIC [7, 21] [µg/mL]	MIC [10] [µg/mL]	MIC [8, 22] [µg/mL]	MIC [9, 23] [µg/mL]	also measured
CCn1cc(C(=O)O)c(=O)c2cc3c(cc21)OCO3 [Oxolinic acid, reference compound]	–	–	–	–	–	–	–	–	–	–	–	–	–	MIC (Escherichia coli 881; Escherichia coli, 881): 0.39 µg/mL (≈ 1.49 µM); MIC (Escherichia coli 139; Escherichia coli, 139): 0.78 µg/mL (≈ 2.99 µM); MIC (Escherichia coli S6W; Escherichia coli, S6W): 0.39 µg/mL (≈ 1.49 µM); MIC ([1]; Pasteurella multocida): 0.2 µg/mL (≈ 0.766 µM); MIC ([2]; Staphylococcus aureus): 3.13 µg/mL (≈ 12 µM); MIC ([3]; TYPHIMURIUM): 0.78 µg/mL (≈ 2.99 µM); MIC ([4]; Salmonella enterica, TYPHIMURIUM): 0.39 µg/mL (≈ 1.49 µM); MIC ([5]; Bordetella, OKM1): 1.56 µg/mL (≈ 5.97 µM); MIC [6]: > 100 µg/mL; MIC [7]: > 100 µg/mL; MIC [8]: > 100 µg/mL; MIC [9]: > 100 µg/mL
CCN1CCN(c2c(F)cc3c(=O)c(C(=O)O)cn4c3c2OC[C@@H]4C)CC1 [(6), 3S-9-fluoro-2,3-dihydro-3-methyl-10-(4-ethyl-1-piperazinyl)-7-oxo-7H-pyrido[1,2,3-de] [1,4]benzoxazine-6-carboxylic acid]	0.1 (≈ 0.266 µM)	0.1 (≈ 0.266 µM)	0.1 (≈ 0.266 µM)	0.2 (≈ 0.533 µM)	0.1 (≈ 0.266 µM)	0.1 (≈ 0.266 µM)	0.2 (≈ 0.533 µM)	–	–	–	–	–	–	–
CCCCN1CCN(c2c(F)cc3c(=O)c(C(=O)O)cn4c3c2OCC4C)CC1 (racemic) [Compound (5), 3(RS)-9-fluoro-2,3-dihydro-3-methyl-10-(4-n-butyl-1-piperazinyl)-7-oxo-7H-pyrido[1,2,3-de] [1,4]benzoxazine-6-carboxylic acid]	0.78 (≈ 1.93 µM)	0.78 (≈ 1.93 µM)	0.78 (≈ 1.93 µM)	0.78 (≈ 1.93 µM)	1.56 (≈ 3.87 µM)	0.78 (≈ 1.93 µM)	0.78 (≈ 1.93 µM)	0.1 (≈ 0.248 µM)	0.025 (≈ 0.062 µM)	0.1 (≈ 0.248 µM)	0.1 (≈ 0.248 µM)	0.1 (≈ 0.248 µM)	0.025 (≈ 0.062 µM)	–
CC(C)N1CCN(c2c(F)cc3c(=O)c(C(=O)O)cn4c3c2OCC4C)CC1 (racemic) [(4), 3(RS)-9-fluoro-2,3-dihydro-3-methyl-10-(4-iso-propyl-1-piperazinyl)-7-oxo-7H-pyrido[1,2,3-de] [1,4]benzoxazine-6-carboxylic acid]	0.39 (≈ 1 µM)	0.78 (≈ 2 µM)	0.78 (≈ 2 µM)	0.78 (≈ 2 µM)	0.78 (≈ 2 µM)	0.78 (≈ 2 µM)	0.78 (≈ 2 µM)	0.2 (≈ 0.514 µM)	0.05 (≈ 0.128 µM)	0.2 (≈ 0.514 µM)	0.39 (≈ 1 µM)	0.39 (≈ 1 µM)	0.05 (≈ 0.128 µM)	–
CCN1CCN(c2c(F)cc3c(=O)c(C(=O)O)cn4c3c2OCC4C)CC1 (racemic) [Compound (2), 3(RS)-9-fluoro-2,3-dihydro-3-methyl-10-(4-ethyl-1-piperazinyl)-7-oxo-7H-pyrido[1,2,3-de] [1,4]benzoxazine-6-carboxylic acid]	0.1 (≈ 0.266 µM)	0.2 (≈ 0.533 µM)	0.1 (≈ 0.266 µM)	0.39 (≈ 1.04 µM)	0.2 (≈ 0.533 µM)	0.1 (≈ 0.266 µM)	0.2 (≈ 0.533 µM)	0.05 (≈ 0.133 µM)	0.025 (≈ 0.0666 µM)	0.1 (≈ 0.266 µM)	0.1 (≈ 0.266 µM)	0.1 (≈ 0.266 µM)	0.025 (≈ 0.0666 µM)	Mycoplasma gallisepticum collected in Air sac (Mycoplasma gallisepticum; 50 ppm in feed for 5 days): 2.08 Logarithmic number of collected cells per 1 g of tissue; Mycoplasma gallisepticum collected in Infraorbital sinus (Mycoplasma gallisepticum; 50 ppm in feed for 5 days): 0/5; Mycoplasma gallisepticum collected in Lung (Mycoplasma gallisepticum; 50 ppm in feed for 5 days): 2.43 Logarithmic number of collected cells per 1 g of tissue; Mycoplasma gallisepticum collected in Trachea (Mycoplasma gallisepticum; 50 ppm in feed for 5 days): 2.96 Logarithmic number of collected cells per 1 g of tissue; Chickens developing disease in air sac (naked eye observation) (Mycoplasma gallisepticum; 50 ppm in feed for 5 days): 0; No. of dead chickens (Mycoplasma gallisepticum; 50 ppm in feed for 5 days): 0; Mycoplasma gallisepticum collected in Air sac (Mycoplasma gallisepticum; 75 ppm in feed for 5 days): 0 Logarithmic number of collected cells per 1 g of tissue; Mycoplasma gallisepticum collected in Infraorbital sinus (Mycoplasma gallisepticum; 75 ppm in feed for 5 days): 0/5; Mycoplasma gallisepticum collected in Lung (Mycoplasma gallisepticum; 75 ppm in feed for 5 days): 0 Logarithmic number of collected cells per 1 g of tissue; Mycoplasma gallisepticum collected in Trachea (Mycoplasma gallisepticum; 75 ppm in feed for 5 days): 0 Logarithmic number of collected cells per 1 g of tissue; Chickens developing disease in air sac (naked eye observation) (Mycoplasma gallisepticum; 75 ppm in feed for 5 days): 0; No. of dead chickens (Mycoplasma gallisepticum; 75 ppm in feed for 5 days): 0; Mycoplasma gallisepticum collected in Air sac (Mycoplasma gallisepticum; 100 ppm in feed for 5 days): 0 Logarithmic number of collected cells per 1 g of tissue; Mycoplasma gallisepticum collected in Infraorbital sinus (Mycoplasma gallisepticum; 100 ppm in feed for 5 days): 0/5; Mycoplasma gallisepticum collected in Lung (Mycoplasma gallisepticum; 100 ppm in feed for 5 days): 0 Logarithmic number of collected cells per 1 g of tissue; Mycoplasma gallisepticum collected in Trachea (Mycoplasma gallisepticum; 100 ppm in feed for 5 days): 0 Logarithmic number of collected cells per 1 g of tissue; Chickens developing disease in air sac (naked eye observation) (Mycoplasma gallisepticum; 100 ppm in feed for 5 days): 0; No. of dead chickens (Mycoplasma gallisepticum; 100 ppm in feed for 5 days): 0; fatality ([11]; mice, intravenously injected, dose of 200 mg/kg): No fatality; LD50 ([11]; mouse, in vivo, iv): > 200 mg/kg
CCCN1CCN(c2c(F)cc3c(=O)c(C(=O)O)cn4c3c2OC[C@@H]4C)CC1 [Compound (7), 3S-9-fluoro-2,3-dihydro-3-methyl-10-(4-n-propyl-1-piperazinyl)-7-oxo-7H-pyrido[1,2,3-de] [1,4]benzoxazine-6-carboxylic acid]	0.2 (≈ 0.514 µM)	0.2 (≈ 0.514 µM)	0.2 (≈ 0.514 µM)	0.2 (≈ 0.514 µM)	0.2 (≈ 0.514 µM)	0.2 (≈ 0.514 µM)	0.39 (≈ 1 µM)	–	–	–	–	–	–	–
CCN1CCN(c2c(F)cc3c(=O)c(C(=O)O)cn4c3c2OCC4C)CC1 (racemic) [Compound (8), 3(RS)-9-fluoro-2,3-dihydro-3-methyl-10-(4-ethyl-1-piperazinyl)-7-oxo-7H-pyrido[1,2,3-de] [1,4]benzoxazine-6-carboxylic acid hydrochloride hemihydrate]	–	–	–	–	–	–	–	–	–	–	–	–	–	MIC (Escherichia coli 881; Escherichia coli 881, Pig, listed as No. 8, hydrochloride hemihydrate): 0.2 µg/mL; MIC (Escherichia coli S6W; Escherichia coli S6W, Chicken, listed as No. 8, hydrochloride hemihydrate): 0.2 µg/mL; MIC ([4]; Salmonella typhimurium 569, Pig, listed as No. 8, hydrochloride hemihydrate): 0.2 µg/mL; MIC ([5]; Bordetella bronchiaseptica OKM-1, Pig, listed as No. 8, hydrochloride hemihydrate): 0.39 µg/mL
